Here are results for eleven compounds from ChEMBL document CHEMBL1201862, “PubChem BioAssay data set” (2004).

Test systems include SW-620; SR; NCI/ADR-RES; SK-MEL-5; SK-MEL-28; MDA-MB-231; HT-29; MOLT-4; PC-3; OVCAR-4; ACHN; DU-145; BT-549; MDA-MB-435; 786-0; SK-MEL-2; Hs-578T; COLO 205; A498; SF-539.
Assay in all cases: NCI tumour cell line growth inhibition, 48 h

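Values below derive from 48-hour exposures of cells grown in 96-well plates, with endpoints linearly interpolated between the two concentrations bracketing the appropriate inhibition level. GI50: concentration for 50% inhibition of growth.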 Calls of active or inactive are those of the source. Cut-off read from the data, not from the text of the source: active = GI50 up to about 1.1 µM and inactive = higher.

With `Cc1ccc(CCCC(=O)O)cc1C`, the GI50 in the assay on SW-620, with SR, in the assay on NCI/ADR-RES, in the assay on SK-MEL-5, with SK-MEL-28 and in the assay on MDA-MB-231 was > 100 µM (inactive) throughout. For the same compound, the GI50 in the assay on HT-29, in the assay on MOLT-4, in the assay on PC-3, with OVCAR-4, in the assay on ACHN and in the assay on DU-145 was > 100 µM (inactive) in each case. Moreover, the GI50 in the assay with BT-549, in the assay with MDA-MB-435, in the assay on 786-0 and in the assay on SK-MEL-2 was > 100 µM (inactive) in each case.

On to `O=C1CSc2ccnc(=O)n21`, for which the GI50 with SW-620, with SR, in the assay with SK-MEL-5, with Hs-578T, with SK-MEL-28 and in the assay on MOLT-4 was > 100 µM (inactive) throughout. Further, the GI50 in the assay on PC-3, in the assay on COLO 205, in the assay with OVCAR-4, in the assay with ACHN, with DU-145 and in the assay with A498 was > 100 µM (inactive) throughout. The GI50 with BT-549, with MDA-MB-435, with SF-539 and in the assay with 786-0 was > 100 µM (inactive) throughout.

Take `COc1cc(C2c3c(ccc4ccccc34)C(=O)C3CCC(=O)N32)cc(OC)c1O` (configuration not stated): the GI50 with SW-620, in the assay on SR, in the assay on NCI/ADR-RES, in the assay on SK-MEL-28, in the assay with HT-29 and in the assay on MOLT-4 was > 25 µM (inactive) each time. The GI50 in the assay with PC-3, in the assay on COLO 205, in the assay on OVCAR-4, in the assay with ACHN, in the assay on DU-145 and with A498 was > 25 µM (inactive) in each case. Further, the GI50 in the assay on BT-549, with MDA-MB-435, in the assay with SF-539, in the assay with 786-0 and in the assay with SK-MEL-2 was > 25 µM (inactive) in each case.

Regarding `COc1ccc2c(c1)CC[C@@H]1[C@@H]2CC[C@]2(C)C(=O)/C(=C/c3ccc(OC)c(OC)c3)C[C@@H]12`, the GI50 was > 100 µM (inactive) in the assay on SW-620; 5.07 µM (inactive) in the assay with SR; > 100 µM (inactive) with NCI/ADR-RES; > 100 µM (inactive) in the assay with SK-MEL-5; > 100 µM (inactive) in the assay on MDA-MB-231; > 100 µM (inactive) in the assay with MOLT-4. Besides, the GI50 with PC-3, in the assay with OVCAR-4, in the assay with ACHN, in the assay with DU-145, in the assay on A498 and with BT-549 was > 100 µM (inactive) in each case. Besides, the GI50 with MDA-MB-435, in the assay on SF-539, with 786-0 and in the assay on SK-MEL-2 was > 100 µM (inactive) throughout.

On to `Cn1/c(=N\c2ccc(Cl)cc2)sc2ccccc21`, for which the GI50 in the assay with SW-620 was 39.8 µM (inactive); with SR, > 100 µM (inactive); in the assay with NCI/ADR-RES, 34.7 µM (inactive); in the assay on SK-MEL-5, 27.7 µM (inactive); in the assay on Hs-578T it was 62.4 µM (inactive); with SK-MEL-28, > 100 µM (inactive). Besides, the GI50 in the assay with MDA-MB-231 is 35.5 µM (inactive); in the assay on HT-29, 32.7 µM (inactive); with MOLT-4, 48.2 µM (inactive); in the assay with PC-3, 37 µM (inactive); with COLO 205 it was 22.3 µM (inactive); in the assay with OVCAR-4, > 100 µM (inactive). The GI50 with ACHN was 49.8 µM (inactive); in the assay on DU-145, 26.6 µM (inactive); in the assay on A498, 55.2 µM (inactive); in the assay with MDA-MB-435 it was 42.1 µM (inactive); in the assay with SF-539, 85.1 µM (inactive); with 786-0, 37.7 µM (inactive). In addition, the GI50 in the assay on SK-MEL-2 was 39.4 µM (inactive).

`CC(C)=CCC/C(C)=C/COC(C)(C)C1=CCC(C)CC1.CC(C)=CCC/C(C)=C/COC1CC(C)CCC1=C(C)C` (configuration not stated): the GI50 in the assay on SW-620 was > 100 µM (inactive); in the assay with SR it was 18.9 µM (inactive); in the assay with SK-MEL-5, > 100 µM (inactive); in the assay on Hs-578T it was > 100 µM (inactive); with SK-MEL-28 it was > 100 µM (inactive); in the assay on HT-29, > 100 µM (inactive). The GI50 with MOLT-4 was 18.2 µM (inactive); in the assay on PC-3, > 100 µM (inactive); in the assay on COLO 205, > 100 µM (inactive); in the assay on OVCAR-4, > 100 µM (inactive); in the assay on ACHN, > 100 µM (inactive); with DU-145 it was > 100 µM (inactive). Moreover, the GI50 in the assay on A498 is > 100 µM (inactive); in the assay on BT-549, > 100 µM (inactive); with MDA-MB-435, > 100 µM (inactive); with SF-539 it was 6.07 µM (inactive); in the assay on 786-0, > 100 µM (inactive).

For `Cn1c(-c2ccccc2)cc(-c2ccc3c(c2)OCO3)c1-c1cccs1`, the GI50 in the assay with SW-620, in the assay on SR, in the assay on NCI/ADR-RES, in the assay on SK-MEL-5, with Hs-578T and with SK-MEL-28 was > 100 µM (inactive) throughout. The GI50 in the assay on HT-29, in the assay with MOLT-4, in the assay with PC-3, in the assay on COLO 205, in the assay with OVCAR-4 and in the assay on ACHN was > 100 µM (inactive) each time. For the same compound, the GI50 in the assay with DU-145, in the assay on A498, with BT-549, with MDA-MB-435, in the assay on SF-539 and with 786-0 was > 100 µM (inactive) throughout. Besides, the GI50 with SK-MEL-2 is > 100 µM (inactive).

As to `O=C(O)C(C1NCCS1)N1Cc2ccccc2C1` (configuration not stated), the GI50 in the assay with SW-620, in the assay on SR, in the assay on NCI/ADR-RES, with SK-MEL-5, in the assay on SK-MEL-28 and in the assay with MDA-MB-231 was > 100 µM (inactive) each time. The GI50 with HT-29, in the assay on MOLT-4, in the assay on PC-3, in the assay with COLO 205, in the assay on OVCAR-4 and in the assay with ACHN was > 100 µM (inactive) each time. The GI50 in the assay on DU-145, with A498, in the assay with BT-549, with MDA-MB-435, with SF-539 and with 786-0 was > 100 µM (inactive) throughout. The GI50 with SK-MEL-2 was > 100 µM (inactive).

For `COc1nc2c(c(=O)[nH]1)N=C(c1ccccc1)CC(c1ccccc1)N2` (configuration not stated), the GI50 with SW-620 was 35.7 µM (inactive); in the assay on SR, > 10 µM (inactive); in the assay on NCI/ADR-RES it was 27.3 µM (inactive); in the assay with SK-MEL-5 it was 38.3 µM (inactive); in the assay with SK-MEL-28 it was 72.9 µM (inactive); with MDA-MB-231, 33 µM (inactive). The GI50 was 44.7 µM (inactive) with HT-29; 31.3 µM (inactive) in the assay on MOLT-4; 57.9 µM (inactive) in the assay on PC-3; > 100 µM (inactive) in the assay with COLO 205; 26.9 µM (inactive) in the assay with OVCAR-4; 30.3 µM (inactive) in the assay on ACHN. Also, the GI50 was 82 µM (inactive) with DU-145; > 100 µM (inactive) with A498; 37.4 µM (inactive) with BT-549; 59.7 µM (inactive) in the assay with MDA-MB-435; 48.1 µM (inactive) in the assay on SF-539; 37.7 µM (inactive) in the assay on 786-0. For the same compound, the GI50 with SK-MEL-2 is 29.6 µM (inactive).

For the compound `Cc1ccc(S(=O)(=O)n2cnc(CC(NC(=O)C3CCC(=O)N3C(=O)OCc3ccccc3)C(=O)N3CCCC3C(=O)NN)c2)cc1` (configuration not stated), the GI50 with SW-620, in the assay on SR, in the assay with SK-MEL-5, in the assay on Hs-578T, in the assay with SK-MEL-28 and with MDA-MB-231 was > 100 µM (inactive) each time. In addition, the GI50 with HT-29, with MOLT-4, in the assay on PC-3, with COLO 205, in the assay on ACHN and in the assay with A498 was > 100 µM (inactive) in each case. Further, the GI50 in the assay on BT-549, in the assay with 786-0 and with SK-MEL-2 was > 100 µM (inactive) each time.

`C=C1CC/C=C(\C)C(=O)C[C@@H]2[C@@H]1CC2(C)C` [BUDDLEDIN C]: the GI50 in the assay on SW-620 was 1.1 µM (active); in the assay with SR, 0.0578 µM (active); with NCI/ADR-RES, 4.53 µM (inactive); in the assay on SK-MEL-5, 2.84 µM (inactive); in the assay with SK-MEL-28 it was 2.75 µM (inactive); in the assay on MDA-MB-231 it was 7.53 µM (inactive). The GI50 in the assay with HT-29 was 2.44 µM (inactive); with MOLT-4, 0.184 µM (active); in the assay on PC-3, 9.14 µM (inactive); in the assay on COLO 205 it was 1.8 µM (inactive); in the assay with OVCAR-4 it was 0.743 µM (active); in the assay with ACHN, 2.18 µM (inactive). The GI50 was 3.16 µM (inactive) in the assay on DU-145; 8.59 µM (inactive) with A498; 2.45 µM (inactive) with BT-549; 1.43 µM (inactive) with MDA-MB-435; 2.31 µM (inactive) in the assay on SF-539; 0.975 µM (active) with 786-0. For the same compound, the GI50 with SK-MEL-2 was 17.5 µM (inactive).
